The record followed here is US8809390B2, “Compound accelerating secretion of human-derived anti-microbial peptide, method for preparing same, and composition having same as active ingredient” (Neopharm Co., Ltd., priority 2010, dated 2014).

In data set [1] the test system is human β-defensin-2 (hBD-2). Kind of data set: Promotion of secretion/expression of β-defensin-2 in cultured human keratinocytes (RT-PCR, real-time PCR). In kind it is cell-based. The settings on record: cultured human keratinocyte (HaCaT), 24 hours, with 1.7 mM calcium chloride; FIG. 1. The procedure:
(§1) A medium containing 1% penicillin/streptomycin but not serum was used to culture human keratinocyte (HaCaT). The human keratinocyte was cultured in a 5% CO2 incubator at 37° C. The cells were seeded in each well of a 6-well plate at 3×10^5 cells/well, and then cultured for 48 hours. 1.7 mM calcium chloride and the new material synthesized from Example 1 were added thereto, and the cells were allowed to culture for 24 hours.
(§2) For assessment, at least one untreated control and at least one positive control were used together. 2.5 ng/mL of lipopolysaccharides (LPS), which is known to promote expression of hBD-2 and LL-37, was used as the positive control, and was allowed to react. After the reaction was completed, a supernatant was collected, and then the cells were washed with phosphate buffer saline (PBS) and collected by using a trypsin-EDTA solution, and stored in a tube. 1 ml of a triazole reagent was added to extract mRNA. […] The diluted RNA was analyzed at a wavelength between 260 nm and 280 nm, and quantitated. […]
(§3) 12.5 μl of PCR premix, 2 μl of primer sense (10 uM), 2 μl of primer antisense (10 uM), 1.5 μl of cDNA, and 7 μl of distilled water were inputted, and then PCR was carried out. […] The sample was migrated and then read out under UV in a dark room, and digitally photographed. Photos of the gel were analyzed by image processing software which quantifies the band intensities. […]

For data set [2], the system named is LL-37. Kind of data set: Promotion of secretion/expression of LL-37 in cultured human keratinocytes (RT-PCR, real-time PCR). In kind it is cell-based. The settings on record: cultured human keratinocyte (HaCaT), 24 hours, with 1.7 mM calcium chloride; FIG. 1. Here is the method:
as §1, §2, §3

The subject of data set [3] is nude mice. Kind of data set: Recovery of skin barrier damage (TEWL) in nude mice with acute skin barrier disruption. In kind it is in vivo, mouse. The following applies: D-Squame acute barrier damage, topical coating, TEWL at 0 h, 3 h, 6 h, 24 h, FIG. 2. Here is the method:
Skin barriers of nude mice were acutely damaged, and then effects of the new material represented in Example on recovery of acute skin barriers were assessed. D-Squame was used to induce skin barrier damage to left and right back regions of 6-8 week aged nude mice. Here, all the experimental groups were maintained to have no difference in trans epidermal water loss (TEWL) through measurement of the trans epidermal water loss (TEWL), and then vehicle (PEG:EtOH=7:3) and the new material represented in the example were coated thereon. The trans epidermal water loss (TEWL) was measured at the time of 0 h, 3 h, 6 h, and 24 h to confirm recovery of the skin barrier, and skin biopsies were conducted at the respective time, to thereby implement histological examination and other examinations.

Data set [4] concerns nude mice. Kind of data set: Efficacy assessment on oxazolone animal model with atopic dermatitis (skin thickness). In kind it is in vivo, mouse. From the text: (§4) An animal model with atopic dermatitis was constructed by coating the abdomens of 6-8 week aged nude mice with 5% oxazolone solution one time for percutaneous sensitization; after week, with 0.1% oxazolone solution every other day, six times, and 1% oxazolone solution every other day, four times. It has been reported that in the case of the animal model with atopic dermatitis using oxazolone, antimicrobial peptides were reduced in the skin (Man M-Q, Hatano Y, Lee S H, et al. Characterization of a hepten-induced, murine model with multiple features of atopic dermatitis: structural, immunologic, and biochemical changes following single versus multiple oxazolone challenges. J Invest Dermatol (2008) 128, 79-86). The skin of the animal model with atopic dermatitis constructed as above was coated with vehicle (PEG:EtOH=7:3) and Compound 1a of Example 1 diluted with the vehicle at a concentration of 0.1% once in the morning and in the afternoon for a total of four days. On the last day, thickness of the skin was measured. Corticosteroid based drug, Dexamethasone, which is an effective anti-inflammatory agent, was used as a positive control.

Data set [5] concerns CRAMP. Kind of data set: Expression of antimicrobial peptide (CRAMP) in the skin of the atopic dermatitis animal model (immunohistochemistry). In kind it is in vivo, mouse. The following applies: animal model with atopic dermatitis, coated for four days; FIG. 4.
Text: as §4, with “Corticosteroid based drug, Dexamethasone, which is an effective anti-inflammatory agent, was used as a positive control.” left out
The new compound synthesized according to Example 1 was coated for four days, and then skin tissue biopsy was conducted to form a paraffin block. […] After the reaction was completed, expression of CRAMP in the corneum of the skin was measured through a microscope. […]

As for `CCCCCC(=O)N[C@@H](Cc1ccc(O)cc1)C(=O)OC` [Chemical Formula (Ia), (S)-Methyl 2-(hexanamido)-3-(4-hydroxyphenyl)propanoate], the melting point is 96 °C. Also, the “secretion of β-defensin-2” value in data set [1] is reported as “promotes secretion”. Besides, the “secretion of LL-37” value in data set [2] was “promotes secretion”. Besides, the skin barrier recovery entry in data set [3] is listed as “significantly promoted”. Further, in data set [4] (animal model with atopic dermatitis, topical application), the skin barrier function entry is recorded as “improved”. The anti-inflammatory efficacy entry in data set [4] (oxazolone atopic dermatitis nude mice, 0.1% in PEG:EtOH=7:3, coated twice daily for four days, skin thickness, FIG. 3) was “improved”. Further, the “expression of antimicrobial peptides in the skin” value in data set [5] is recorded as “increased”.
